Assay results reported in article PMC9977302, “Medium-chain fatty acids suppress lipotoxicity-induced hepatic fibrosis via the immunomodulating receptor GPR84” (JCI Insight, 2023).
Read-outs that look alike come from different tables or passages of the source.

Target: GPR84 (Mus musculus, UniProt Q8CIM5)
Assay: cAMP inhibition assay in Dox-inducible mouse GPR84 HEK293 cells, with Dox-uninduced controls
Type: cell-based

Sequence of GPR84 (Q8CIM5 whole entry): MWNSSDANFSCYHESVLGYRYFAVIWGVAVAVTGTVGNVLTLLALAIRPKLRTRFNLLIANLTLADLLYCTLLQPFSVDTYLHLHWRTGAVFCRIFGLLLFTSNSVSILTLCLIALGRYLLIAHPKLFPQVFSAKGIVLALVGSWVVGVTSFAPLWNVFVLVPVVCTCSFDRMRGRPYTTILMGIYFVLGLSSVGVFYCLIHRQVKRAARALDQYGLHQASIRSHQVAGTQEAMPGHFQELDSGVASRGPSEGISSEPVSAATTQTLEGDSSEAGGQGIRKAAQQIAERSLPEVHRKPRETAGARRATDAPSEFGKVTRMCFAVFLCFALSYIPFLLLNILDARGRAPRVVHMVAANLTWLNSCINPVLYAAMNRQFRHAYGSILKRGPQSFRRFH

EC50 (read-out: EC50) [µM]	Structure (SMILES)	EC50 [µM]
	CCCCCCCCCC(=O)O [C10:0, capric acid]	3.5
4.4	CCCCCCCCCCCC(=O)O [C12:0]	
